Values joined by “and” are separate entries in the source; they are usually repeats but may differ in a detail not shown here. Equal values may be shown once.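 Step 1: Grow cells in 96-well plates. Step 2: Expose to compound for 48 hours at 5 concentrations. Step 3: Interpolate endpoints linearly; if unreached, use highest concentration. GI50 is the concentration that inhibits growth by half. TGI: total growth inhibition.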
Assays:
Experiment in all cases: NCI tumour cell line growth inhibition, 48 h
OVCAR-5 ovarian = tested on: OVCAR-5 ovarian
TK-10 renal = tested on: TK-10 renal
UACC-257 melanoma = tested on: UACC-257 melanoma
SK-MEL-28 melanoma = tested on: SK-MEL-28 melanoma
NCI-H522 lung = tested on: NCI-H522 lung
HOP-92 NSCLC = tested on: HOP-92 NSCLC
RPMI-8226 leukemia = tested on: RPMI-8226 leukemia
NCI-H226 lung = tested on: NCI-H226 lung
EKVX NSCLC = tested on: EKVX NSCLC
CCRF-CEM leukemia = tested on: CCRF-CEM leukemia

Structure (SMILES)	TGI (OVCAR-5 ovarian)	TGI (TK-10 renal)	TGI (UACC-257 melanoma)	TGI (SK-MEL-28 melanoma)	TGI (NCI-H522 lung) [µM]	TGI (HOP-92 NSCLC) [µM]	TGI (RPMI-8226 leukemia) [µM]	TGI (NCI-H226 lung)	GI50 (EKVX NSCLC) [µM]	TGI (EKVX NSCLC) [µM]	GI50 (TK-10 renal)	GI50 (UACC-257 melanoma) [µM]	GI50 (SK-MEL-28 melanoma) [µM]	GI50 (NCI-H522 lung) [µM]	GI50 (HOP-92 NSCLC) [µM]	GI50 (CCRF-CEM leukemia) [µM]	TGI (CCRF-CEM leukemia) [µM]	GI50 (RPMI-8226 leukemia) [µM]	GI50 (OVCAR-5 ovarian) [µM]	GI50 (NCI-H226 lung)
CCOC(=O)C1=C(Nc2ccc(Cl)cc2Cl)OCC1=O	> 100 µM	> 100 µM	> 100 µM	> 100 µM	> 100	> 100	> 100	> 100 µM												
Cn1c(-c2c(N)n(Nc3cccc(Cl)c3)c3nc(C#N)c(C#N)nc23)nc2ccccc21		> 50 µM	15.9 µM	24.4 µM	8.19	> 50	> 50		0.839	7.45	12.9 µM	6.18	6.99	1.06	16.5	23.5	> 50	3.53		
C[C@@H]1C[C@H](C)CN(S(=O)(=O)c2ccc3c(NO)c4ccc(S(=O)(=O)N5C[C@H](C)C[C@H](C)C5)cc4c(N=O)c3c2)C1	0.4 µM	0.321 µM		0.276 µM	0.36	0.522	0.669	0.364 µM	0.128	0.269	0.168 µM		0.129	0.181	0.167			0.24	0.173	0.157 µM
CCC1CC2C(=O)N(c3ccccc3)C(=O)C2c2[nH]c3ccccc3c21 (stereo not given)	> 100 µM	68.3 µM		> 100 µM			> 100	33.8 µM		95.3							> 100			
O=S(=O)(NC1=NCCN1C(=S)SN1CCn2c1nsc2=S)c1cccc2ccccc12	> 100 µM	64.8 µM	97.2 µM	> 100 µM	36.1		67.8	> 100 µM	25.8	> 100	21.4 µM	24.3	58.6	12.2		2.5	> 100	3.7	61	30.6 µM
COc1ccc(S(=O)(=O)N2CCN(C(=O)c3ccc(-c4ccccc4)cc3)CC2C(=O)NO)cc1 (stereo not given)	12.5 µM and > 100 µM	7.33 µM and 58.5 µM	12.5 µM and > 100 µM	12.5 µM and > 100 µM		> 100	> 100	12.5 µM and 88.9 µM	1.61	7.02	1.83 µM and 12.1 µM				> 100	> 100	> 100	> 100		5.2 µM and 20.7 µM
Cc1nc(N)nc2c1CCC(O)S2 (stereo not given)	74.3 µM	> 100 µM	47.1 µM	28.9 µM	34	12.3	> 100		24.8	93.2	32.1 µM	12.9	6.11	17	2.54	4.29	69.1	21.3	20.7	
C=C1C(=O)OC2C/C(C)=C/CC/C(C)=C/CCC3(COC(C)=O)OC3CC12 (stereo not given)	30.5 µM	19.5 µM	29.6 µM	23.1 µM	2.9		13			38.6							8.49			
O=S(=O)(NCCNc1nccc(-c2c(-c3ccc(F)c(O)c3)nc3sccn23)n1)c1ccc(F)cc1	85.7 µM	96.7 µM	18.3 µM	21.9 µM	19.2	6.86	4.24	20.4 µM	5.42	60.6	16.2 µM	1.71	0.429	3.31	1.3			1.78	4.37	4.01 µM
COc1cc(C2SCCCCCCCCCCSC(c3ccc(O)c(OC)c3)SCCCCCCCCCCS2)ccc1O (stereo not given)	> 100 µM	> 100 µM	> 100 µM	> 100 µM	> 100	> 100	> 100	> 100 µM		> 100										
O=C(/C=C/c1ccccc1)C(Br)C(Br)c1ccccc1 (stereo not given)	3.39 µM		3.66 µM	4.66 µM	2.31		0.909					1.59	2.04	1.04		0.308	1.2	0.317	1.67	
N/N=C1\C(=O)N(C2CCCCCC2)C(=O)C1C(=O)NC1CCCCCC1 (stereo not given)	> 100 µM	> 10 µM	> 100 µM	> 10 µM	60	41.6				> 100							80.8			
COC12CCC(=O)C=C1c1ccccc1N2C(C)=O (stereo not given)			> 100 µM	> 100 µM			> 100			> 100							> 100			
Cc1nn[n-]n1.N.N.N.N.N.[Cl-].[Co+3]	> 100 µM	> 100 µM	> 100 µM	> 100 µM		> 100	> 100	> 100 µM	> 100	> 100	> 100 µM	> 100	> 100		> 100	> 100	> 100	> 100	> 100	> 100 µM
Cc1ccccc1NC(=O)c1cc(-c2ccc([N+](=O)[O-])cc2)nc(=S)[nH]1	> 100 µM	> 100 µM	> 100 µM	> 100 µM		> 100		> 100 µM		> 100										
O=C1CC2C(=O)c3ccccc3CC2c2ccccc21 (stereo not given)	> 100 µM	> 100 µM	75.2 µM	> 100 µM	> 100	> 100	64	> 100 µM		> 100										
CC1/C=C/[C@@]2(C)CCC(C(C)(C)O)C2C(O)C[C@](C)(O)/C=C/C1 (stereo not given in full)	> 100 µM	> 100 µM	> 100 µM	> 100 µM		> 100	> 100	52 µM		> 100							> 100			
CCCNC(=O)C1C(=O)C(=O)N(CCC)C1=O (stereo not given)	> 100 µM	> 100 µM	> 100 µM	> 100 µM	> 100	> 100	> 100			> 100							> 100			
